This note sets out measurements from patent publication US20190116835A1, “Sweetness and Taste Improvement of Steviol Glycoside or Mogroside Sweeteners with Flavonids” (The Coca-Cola Company, priority 2016, published 2019).

Experiment [1] is described as follows: Taste evaluation by trained panelists: sweetness enhancement of Rebaudioside M, compared against sucrose beverages. The experiment is classed as in vivo, human. Conditions: beverage containing 150 ppm Rebaudioside M in acidic water, no Test Mixture 1. On the procedure:
The ability of the following compounds to enhance the sweetness of Rebaudioside M was evaluated:
(§1) Sample were prepared with the following ingredients:
(§2) Ingredients were added to water or water with Test Mixture 1 while stirring until solids were visibly dissolved and the sample was poured into a glass bottle and stored at 4° C.
Trained panelists compared the taste and sweetness profiles of (i) the beverage containing 150 ppm Rebaudioside M (Table 3) and (ii) the beverage containing 40 ppm Test Mixture 1 and 150 ppm Rebaudioside M (Table 4) against the 6%, 8%, and 10% sucrose beverages (Table 5).
(§3) Bottles were removed from the refrigerator and about 25 ml of beverage was poured into 4 oz-plastic cups. Panelists were given mineral water to rinse their mouth before and between tastings. Unsalted crackers were also given to panelists to eat followed by rinsing their mouth with mineral water before tasting the next sample. Panelists were instructed to sip, evaluate the sweetness, and then spit the samples in cups provided for that purpose.

Experiment [2] in a line: Taste evaluation by trained panelists: sweetness enhancement of Siamenoside I, compared against sucrose beverages. The experiment is classed as in vivo, human. The following applies: beverage containing 150 ppm Siamenoside I in acidic water, no Test Mixture 1. On the procedure: The ability of Text Mixture 1 to enhance the sweetness of Siamenoside I was evaluated.
as §1, §2
The trained panelists then compared the taste and sweetness profiles of (i) the beverage containing 150 ppm Siamenoside I (Table 3) and (ii) the beverage containing 40 ppm Test Mixture 1 and 150 ppm Siamenoside I (Table 4) against the 6%, 8%, and 10% sucrose beverages (Table 5).
as §3

`C=C1C[C@@]23CC[C@H]4[C@@](C)(CCC[C@@]4(C)C(=O)O[C@@H]4O[C@H](CO)[C@@H](O)[C@H](O[C@@H]5O[C@H](CO)[C@@H](O)[C@H](O)[C@H]5O)[C@H]4O[C@@H]4O[C@H](CO)[C@@H](O)[C@H](O)[C@H]4O)[C@@H]2CC[C@]1(O[C@@H]1O[C@H](CO)[C@@H](O)[C@H](O[C@@H]2O[C@H](CO)[C@@H](O)[C@H](O)[C@H]2O)[C@H]1O[C@@H]1O[C@H](CO)[C@@H](O)[C@H](O)[C@H]1O)C3` [Rebaudioside M, rebaudioside M]: the “sweetness, as sweet as sucrose beverage” value in experiment [1] was 5-6 % sucrose.

As for `C[C@H](CC[C@@H](O[C@@H]1O[C@H](CO[C@@H]2O[C@H](CO)[C@@H](O)[C@H](O)[C@H]2O)[C@@H](O)[C@H](O)[C@H]1O[C@@H]1O[C@H](CO)[C@@H](O)[C@H](O)[C@H]1O)C(C)(C)O)[C@H]1CC[C@@]2(C)[C@@H]3CC=C4[C@@H](CC[C@H](O[C@@H]5O[C@H](CO)[C@@H](O)[C@H](O)[C@H]5O)C4(C)C)[C@]3(C)[C@H](O)C[C@]12C` [Siamenoside I, siamenoside I], the “sweetness, equivalent to sucrose beverages” value in experiment [2] is 4%-6%.
